Values quoted from earlier work as cited in patent US20070281957A1, “Crystalline Forms of Levorphanol” (Mallinckrodt Inc., priority 2006, published 2007).

What was measured:
[1] = levorphanol free base, known physical property
[2] = levorphanol free base, known physical property; remark: listed apart in the source

## CN1CC[C@]23CCCC[C@H]2[C@H]1Cc1ccc(O)cc13 [Levorphanol, 3-Hydroxy-N-methylmorphinan]
[1]
  Water solubility (at 25° C.): 1840 µg/mL
[2]
  Vapor pressure (at 25° C.): 1.04 × 10^−6 mmHg
